Values quoted from earlier work as cited in publication PMC8201747, “Cell Permeability of Isomeric Macrocycles: Predictions and NMR Studies” (ACS Medicinal Chemistry Letters, 2021).

System: Caco-2 cell monolayer
Conditions: Table S17, reported previously, ref 13 (SI); for ER (efflux ratio): Caco-2

Structure (SMILES)	ER (efflux ratio)	Permeability (passive permeability across a Caco-2 cell monolayer, Papp AB+inhibitor cocktail)
CO[C@H]1CN(C)C(=O)c2cc(C#N)ccc2OC[C@@H]2O[C@H](CC[C@H]2OC)CCN(C)C(=O)[C@@H]1C [Macrocycle 5]	1.40	1.89 ×10⁻⁶ cm/s
CO[C@@H]1CC[C@@H]2CCN(C)C(=O)[C@H](C)[C@H](OC)CN(C)C(=O)c3cccc(C#N)c3OC[C@@H]1O2 [Macrocycle 6]	0.81	23.08 ×10⁻⁶ cm/s
CO[C@H]1CN(C)C(=O)c2cccc(C#N)c2OC[C@@H]2O[C@H](CC[C@H]2OC)CCN(C)C(=O)[C@@H]1C [Macrocycle 7]	0.78	6.36 ×10⁻⁶ cm/s
